In the supplement of paper PMC10627819:

Tests used:
Assay in all cases: fitness (endpoint OD595 vs no drug) (fraction); higher = more growth
B. subtilis 168 = test system: B. subtilis 168
Method in brief: (§1)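 Growth medium was TSB, LB Lennox or CY, and plates were kept at 37 °C. Inoculation was at OD595 0.01 in 384-well plates, at 30 µl per well or 55 µl for S. pneumoniae. OD595 was monitored every 30 min for 14 h and background-subtracted using the first reading. Fitness is the optical density on entering stationary phase divided by the robust mean of no-drug controls, with values capped at 1.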

S. aureus Newman = details: one replicate
Method in brief: as §1

S. pneumoniae D39V = test system: S. pneumoniae D39V
Method in brief: as §1
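Also: OD595 on entry to stationary phase over no-drug wells; at most 1.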

N[C@@H]1CONC1=O [Cycloserine D] + CCC(C)C1C(=O)NC(=C)C(=O)NC(C(=O)NC(CSCC(C(=O)N1)NC(=O)/C(=C/C)/NC(=O)C(C(C)CC)N)C(=O)NC2C(SCC(NC(=O)CNC(=O)C3CCCN3C2=O)C(=O)NC(CCCCN)C(=O)NC4C(SCC(NC(=O)CNC(=O)C(NC(=O)C(NC(=O)C(NC(=O)CNC4=O)C)CC(C)C)CCSC)C(=O)NC(CC(=O)N)C(=O)NC(CCSC)C(=O)NC(CCCCN)C(=O)NC5C(SCC6C(=O)NC(C(=O)NC(CSC(C(C(=O)N6)NC(=O)C(NC5=O)C)C)C(=O)NC(CO)C(=O)NC(C(C)CC)C(=O)NC(CC7=CN=CN7)C(=O)NC(C(C)C)C(=O)NC(=C)C(=O)NC(CCCCN)C(=O)O)CC8=CN=CN8)C)C)C)CC(C)C [Nisin]
fitness, B. subtilis 168, main component drawn
Details	first compound 0.125 µg/mL	first compound 0.25 µg/mL	first compound 0.5 µg/mL
partner 0.5 µg/mL	0.926	0.867	0.878
partner 1 µg/mL	0.888	0.824	0.81
partner 2 µg/mL	0.589	0.601	0.606

fitness, B. subtilis 168, one replicate, main component drawn
Details	partner 1.25 µg/mL	partner 1.6 µg/mL	partner 2.5 µg/mL	partner 3.2 µg/mL	partner 4 µg/mL	partner 5 µg/mL	partner 6.4 µg/mL	partner 8 µg/mL	partner 16 µg/mL
first compound 0.125 µg/mL	≥ 1	0.654	0.708	0.0215	0.0688	0.137	0.0306	0.0472	0.0248
first compound 0.25 µg/mL	≥ 1	0.681	0.698	0.0139	0.0497	0.0686	0.0459	0.0297	0.0048
first compound 0.5 µg/mL	0.985	0.721	0.341	0.0205	0.041	0.0366	0.017	0.0245	0.0169

C/C(=C\C(=O)OCCCCCCCCC(=O)O)C[C@@H]1OC[C@H](C[C@@H]2O[C@H]2[C@@H](C)[C@H](C)O)[C@@H](O)[C@H]1O [Pseudomonic acid] + C[n+]1ccc(-c2cc[n+](C)cc2)cc1 [Paraquat]
fitness
Details	partner 1.25 µg/mL	partner 1.5 µg/mL	partner 2.5 µg/mL	partner 3 µg/mL	partner 5 µg/mL	partner 6 µg/mL
S. aureus Newman, first compound 0.0313 µg/mL	0.0626	–	0.0649	–	0.082	–
S. aureus Newman, first compound 0.0625 µg/mL	0.028	–	0.0373	–	0.0355	–
S. aureus Newman, first compound 0.125 µg/mL	0.0553	–	0.0338	–	0.0668	–
S. pneumoniae D39V, first compound 0.03 µg/mL	–	0.988	–	0.919	–	0.931
S. pneumoniae D39V, first compound 0.06 µg/mL	–	0.837	–	0.78	–	0.779

N[C@@H]1CONC1=O [Cycloserine D] + CN(C)C(=O)C(CCN1CCC(O)(c2ccc(Cl)cc2)CC1)(c1ccccc1)c1ccccc1 [Loperamide]
fitness, B. subtilis 168
Details	first compound 0.125 µg/mL	first compound 0.25 µg/mL	first compound 0.5 µg/mL
partner 50 µg/mL	0.0169	0.0651	0.0491
partner 100 µg/mL	0.0259	0.0243	0.0094

C/C(=C\C(=O)OCCCCCCCCC(=O)O)C[C@@H]1OC[C@H](C[C@@H]2O[C@H]2[C@@H](C)[C@H](C)O)[C@@H](O)[C@H]1O [Pseudomonic acid] + O=C1CN(/N=C/c2ccc([N+](=O)[O-])o2)C(=O)N1 [Nitrofurantoin]
fitness, S. pneumoniae D39V
Details	partner 1.285 µg/mL	partner 2 µg/mL	partner 2.57 µg/mL	partner 4 µg/mL	partner 8 µg/mL
first compound 0.03 µg/mL	0.916	0.854	0.942	0.872	0.793
first compound 0.06 µg/mL	0.815	0.773	0.819	0.706	0.718
first compound 0.12 µg/mL	0.616	0.563	0.605	0.59	0.515

S. pneumoniae D39V, partner 5.14 µg/mL, one replicate
Details	fitness
first compound 0.03 µg/mL	0.912
first compound 0.06 µg/mL	0.8
first compound 0.12 µg/mL	0.556

N[C@@H]1CONC1=O [Cycloserine D] + C[C@H]1COc2c(N3CCN(C)CC3)c(F)cc3c(=O)c(C(=O)O)cn1c23 [Levofloxacin]
fitness, B. subtilis 168, one replicate
Details	first compound 0.125 µg/mL	first compound 0.25 µg/mL	first compound 0.5 µg/mL
partner 0.001 µg/mL	0.979	0.973	0.987
partner 0.0078 µg/mL	0.898	0.863	0.968

fitness, B. subtilis 168
Details	partner 0.002 µg/mL	partner 0.0039 µg/mL	partner 0.0312 µg/mL	partner 0.0625 µg/mL	partner 0.125 µg/mL
first compound 0.125 µg/mL	0.93	0.92	0.0375	0.0466	0.0546
first compound 0.25 µg/mL	0.921	0.902	0.0356	0.0536	0.0482
first compound 0.5 µg/mL	0.965	0.995	0.0328	0.0466	0.0559

C/C(=C\C(=O)OCCCCCCCCC(=O)O)C[C@@H]1OC[C@H](C[C@@H]2O[C@H]2[C@@H](C)[C@H](C)O)[C@@H](O)[C@H]1O [Pseudomonic acid] + Cc1onc(-c2ccccc2)c1C(=O)N[C@@H]1C(=O)N2[C@@H]1SC(C)(C)[C@@H]2C(=O)O [Oxacillin]
Details	fitness
S. aureus Newman, first compound 0.0313 µg/mL, partner 0.0156 µg/mL	0.058
S. aureus Newman, first compound 0.0313 µg/mL, partner 0.0312 µg/mL	0.0524
S. aureus Newman, first compound 0.0313 µg/mL, partner 0.0625 µg/mL	0.0522
S. aureus Newman, first compound 0.0625 µg/mL, partner 0.0156 µg/mL	0.0445
S. aureus Newman, first compound 0.0625 µg/mL, partner 0.0312 µg/mL	0.0435
S. aureus Newman, first compound 0.0625 µg/mL, partner 0.0625 µg/mL	0.0224
S. aureus Newman, first compound 0.125 µg/mL, partner 0.0156 µg/mL	0.0455
S. aureus Newman, first compound 0.125 µg/mL, partner 0.0312 µg/mL	0.0505
S. aureus Newman, first compound 0.125 µg/mL, partner 0.0625 µg/mL	0.0295
S. pneumoniae D39V, first compound 0.03 µg/mL, partner 0.01 µg/mL	0.948
S. pneumoniae D39V, first compound 0.03 µg/mL, partner 0.02 µg/mL	0.95
S. pneumoniae D39V, first compound 0.06 µg/mL, partner 0.01 µg/mL	0.835
S. pneumoniae D39V, first compound 0.06 µg/mL, partner 0.02 µg/mL	0.819
S. pneumoniae D39V, first compound 0.06 µg/mL, partner 0.04 µg/mL	0.717
S. pneumoniae D39V, first compound 0.12 µg/mL, partner 0.01 µg/mL	0.589
S. pneumoniae D39V, first compound 0.12 µg/mL, partner 0.02 µg/mL	0.562
S. pneumoniae D39V, first compound 0.12 µg/mL, partner 0.04 µg/mL	0.424

C[C@@H](O)[C@H]1C(=O)N2C(C(=O)O)=C(SCCNC=N)C[C@H]12 [Imipenem] + CO[C@@]12[C@H](COC(N)=O)C3=C(C(=O)C(C)=C(N)C3=O)N1C[C@@H]1N[C@@H]12 [Mitomycin C]
S. pneumoniae D39V
Details	fitness
first compound 0.005 µg/mL, partner 0.001075 µg/mL	0.906
first compound 0.005 µg/mL, partner 0.00215 µg/mL	0.923
first compound 0.005 µg/mL, partner 0.0043 µg/mL	0.815
first compound 0.0065 µg/mL, partner 0.002 µg/mL	0.797
first compound 0.0065 µg/mL, partner 0.004 µg/mL	0.657
first compound 0.01 µg/mL, partner 0.001075 µg/mL	0.921
first compound 0.01 µg/mL, partner 0.00215 µg/mL	0.876
first compound 0.01 µg/mL, partner 0.0043 µg/mL	0.804
first compound 0.013 µg/mL, partner 0.002 µg/mL	0.583
first compound 0.013 µg/mL, partner 0.004 µg/mL	0.731
first compound 0.013 µg/mL, partner 0.008 µg/mL	0.56
first compound 0.02 µg/mL, partner 0.001075 µg/mL	0.937
first compound 0.02 µg/mL, partner 0.00215 µg/mL	0.919
first compound 0.02 µg/mL, partner 0.0043 µg/mL	0.78
first compound 0.026 µg/mL, partner 0.002 µg/mL	0.737
first compound 0.026 µg/mL, partner 0.004 µg/mL	0.668
first compound 0.026 µg/mL, partner 0.008 µg/mL	0.417

C/C(=C\C(=O)OCCCCCCCCC(=O)O)C[C@@H]1OC[C@H](C[C@@H]2O[C@H]2[C@@H](C)[C@H](C)O)[C@@H](O)[C@H]1O [Pseudomonic acid] + COc1c(N2C[C@@H]3CCCN[C@@H]3C2)c(F)cc2c(=O)c(C(=O)O)cn(C3CC3)c12 [Moxifloxacin]
fitness
Details	partner 0.0037 µg/mL	partner 0.005 µg/mL	partner 0.0075 µg/mL	partner 0.01 µg/mL	partner 0.015 µg/mL	partner 0.02 µg/mL	partner 0.03 µg/mL
S. aureus Newman, first compound 0.0313 µg/mL	–	–	0.0642	–	0.0514	–	0.0387
S. aureus Newman, first compound 0.0625 µg/mL	–	–	0.025	–	0.0242	–	0.0144
S. aureus Newman, first compound 0.125 µg/mL	–	–	0.0349	–	0.0408	–	0.0169
S. pneumoniae D39V, first compound 0.03 µg/mL	0.635	0.929	0.839	0.975	0.806	0.982	–
S. pneumoniae D39V, first compound 0.06 µg/mL	0.49	0.834	0.715	0.876	0.692	0.869	–
S. pneumoniae D39V, first compound 0.12 µg/mL	0.357	0.609	0.534	0.662	0.539	0.671	–

CC[C@H]1OC(=O)[C@H](C)[C@@H](O[C@H]2C[C@@](C)(OC)[C@@H](O)[C@H](C)O2)[C@H](C)[C@@H](O[C@@H]2O[C@H](C)C[C@H](N(C)C)[C@H]2O)[C@](C)(OC)C[C@@H](C)C(=O)[C@H](C)[C@@H](O)[C@]1(C)O [Clarithromycin] + CC1=C(C(=O)O)N2C(=O)[C@@H](NC(=O)[C@H](N)c3ccccc3)[C@H]2SC1 [Cephalexin]
fitness, S. pneumoniae D39V, one replicate
Details	first compound 0.007812 µg/mL	first compound 0.01562 µg/mL	first compound 0.03125 µg/mL	first compound 0.0625 µg/mL	first compound 0.125 µg/mL	first compound 0.25 µg/mL
partner 0.125 µg/mL	–	–	–	0.701	0.33	0.138
partner 0.25 µg/mL	–	–	–	0.723	0.381	0.174
partner 0.5 µg/mL	–	–	–	0.777	0.4	0.163
partner 1 µg/mL	0.314	0.417	0.236	–	–	–
partner 2 µg/mL	0.028	0.0414	0.0229	–	–	–
partner 4 µg/mL	0.0398	0.0811	0.0306	–	–	–

fitness, S. pneumoniae D39V
Details	first compound 0.07 µg/mL	first compound 0.14 µg/mL	first compound 0.28 µg/mL
partner 1 µg/mL	0.0665	0.0755	0.0377
partner 2 µg/mL	0.0399	0.0839	0.0276
partner 4 µg/mL	0.0364	0.0743	0.0463

CC[C@H]1OC(=O)[C@H](C)[C@@H](O[C@H]2C[C@@](C)(OC)[C@@H](O)[C@H](C)O2)[C@H](C)[C@@H](O[C@@H]2O[C@H](C)C[C@H](N(C)C)[C@H]2O)[C@](C)(OC)C[C@@H](C)C(=O)[C@H](C)[C@@H](O)[C@]1(C)O [Clarithromycin] + CO[C@@]12[C@H](COC(N)=O)C3=C(C(=O)C(C)=C(N)C3=O)N1C[C@@H]1N[C@@H]12 [Mitomycin C]
fitness, S. pneumoniae D39V, one replicate
Details	first compound 0.007812 µg/mL	first compound 0.01562 µg/mL	first compound 0.03125 µg/mL
partner 0.002 µg/mL	0.798	0.763	0.596
partner 0.004 µg/mL	0.727	0.692	0.539
partner 0.008 µg/mL	0.546	0.558	0.379

fitness, S. pneumoniae D39V
Details	first compound 0.0625 µg/mL	first compound 0.07 µg/mL	first compound 0.125 µg/mL	first compound 0.14 µg/mL	first compound 0.25 µg/mL	first compound 0.28 µg/mL
partner 0.001075 µg/mL	0.654	–	0.345	–	0.084	–
partner 0.002 µg/mL	–	0.139	–	0.0901	–	0.0614
partner 0.00215 µg/mL	0.642	–	0.285	–	0.108	–
partner 0.004 µg/mL	–	0.142	–	0.0707	–	0.0988
partner 0.0043 µg/mL	0.526	–	0.245	–	0.0525	–
partner 0.008 µg/mL	–	0.0708	–	0.039	–	0.0676
